According to paper PMC6199744, “Development of Chemical Proteomics for the Folateome and Analysis of the Kinetoplastid Folateome” (ACS Infectious Diseases, 2018):
Like-named read-outs stand apart in the source and are kept apart here.

How the values were obtained:
Type in all cases: binding
[1] = biological target: T1, HeLa cell extract proteins (Homo sapiens, UniProt Q9Y6K9)
T1 construct: endogenous in cells; host or cells: HeLa cell extract

[2] = biological target: T2, HeLa cell extract proteins (Homo sapiens, UniProt P12270)
T2 construct: endogenous in cells; host or cells: HeLa cell extract
T2 sequence (P12270 whole entry): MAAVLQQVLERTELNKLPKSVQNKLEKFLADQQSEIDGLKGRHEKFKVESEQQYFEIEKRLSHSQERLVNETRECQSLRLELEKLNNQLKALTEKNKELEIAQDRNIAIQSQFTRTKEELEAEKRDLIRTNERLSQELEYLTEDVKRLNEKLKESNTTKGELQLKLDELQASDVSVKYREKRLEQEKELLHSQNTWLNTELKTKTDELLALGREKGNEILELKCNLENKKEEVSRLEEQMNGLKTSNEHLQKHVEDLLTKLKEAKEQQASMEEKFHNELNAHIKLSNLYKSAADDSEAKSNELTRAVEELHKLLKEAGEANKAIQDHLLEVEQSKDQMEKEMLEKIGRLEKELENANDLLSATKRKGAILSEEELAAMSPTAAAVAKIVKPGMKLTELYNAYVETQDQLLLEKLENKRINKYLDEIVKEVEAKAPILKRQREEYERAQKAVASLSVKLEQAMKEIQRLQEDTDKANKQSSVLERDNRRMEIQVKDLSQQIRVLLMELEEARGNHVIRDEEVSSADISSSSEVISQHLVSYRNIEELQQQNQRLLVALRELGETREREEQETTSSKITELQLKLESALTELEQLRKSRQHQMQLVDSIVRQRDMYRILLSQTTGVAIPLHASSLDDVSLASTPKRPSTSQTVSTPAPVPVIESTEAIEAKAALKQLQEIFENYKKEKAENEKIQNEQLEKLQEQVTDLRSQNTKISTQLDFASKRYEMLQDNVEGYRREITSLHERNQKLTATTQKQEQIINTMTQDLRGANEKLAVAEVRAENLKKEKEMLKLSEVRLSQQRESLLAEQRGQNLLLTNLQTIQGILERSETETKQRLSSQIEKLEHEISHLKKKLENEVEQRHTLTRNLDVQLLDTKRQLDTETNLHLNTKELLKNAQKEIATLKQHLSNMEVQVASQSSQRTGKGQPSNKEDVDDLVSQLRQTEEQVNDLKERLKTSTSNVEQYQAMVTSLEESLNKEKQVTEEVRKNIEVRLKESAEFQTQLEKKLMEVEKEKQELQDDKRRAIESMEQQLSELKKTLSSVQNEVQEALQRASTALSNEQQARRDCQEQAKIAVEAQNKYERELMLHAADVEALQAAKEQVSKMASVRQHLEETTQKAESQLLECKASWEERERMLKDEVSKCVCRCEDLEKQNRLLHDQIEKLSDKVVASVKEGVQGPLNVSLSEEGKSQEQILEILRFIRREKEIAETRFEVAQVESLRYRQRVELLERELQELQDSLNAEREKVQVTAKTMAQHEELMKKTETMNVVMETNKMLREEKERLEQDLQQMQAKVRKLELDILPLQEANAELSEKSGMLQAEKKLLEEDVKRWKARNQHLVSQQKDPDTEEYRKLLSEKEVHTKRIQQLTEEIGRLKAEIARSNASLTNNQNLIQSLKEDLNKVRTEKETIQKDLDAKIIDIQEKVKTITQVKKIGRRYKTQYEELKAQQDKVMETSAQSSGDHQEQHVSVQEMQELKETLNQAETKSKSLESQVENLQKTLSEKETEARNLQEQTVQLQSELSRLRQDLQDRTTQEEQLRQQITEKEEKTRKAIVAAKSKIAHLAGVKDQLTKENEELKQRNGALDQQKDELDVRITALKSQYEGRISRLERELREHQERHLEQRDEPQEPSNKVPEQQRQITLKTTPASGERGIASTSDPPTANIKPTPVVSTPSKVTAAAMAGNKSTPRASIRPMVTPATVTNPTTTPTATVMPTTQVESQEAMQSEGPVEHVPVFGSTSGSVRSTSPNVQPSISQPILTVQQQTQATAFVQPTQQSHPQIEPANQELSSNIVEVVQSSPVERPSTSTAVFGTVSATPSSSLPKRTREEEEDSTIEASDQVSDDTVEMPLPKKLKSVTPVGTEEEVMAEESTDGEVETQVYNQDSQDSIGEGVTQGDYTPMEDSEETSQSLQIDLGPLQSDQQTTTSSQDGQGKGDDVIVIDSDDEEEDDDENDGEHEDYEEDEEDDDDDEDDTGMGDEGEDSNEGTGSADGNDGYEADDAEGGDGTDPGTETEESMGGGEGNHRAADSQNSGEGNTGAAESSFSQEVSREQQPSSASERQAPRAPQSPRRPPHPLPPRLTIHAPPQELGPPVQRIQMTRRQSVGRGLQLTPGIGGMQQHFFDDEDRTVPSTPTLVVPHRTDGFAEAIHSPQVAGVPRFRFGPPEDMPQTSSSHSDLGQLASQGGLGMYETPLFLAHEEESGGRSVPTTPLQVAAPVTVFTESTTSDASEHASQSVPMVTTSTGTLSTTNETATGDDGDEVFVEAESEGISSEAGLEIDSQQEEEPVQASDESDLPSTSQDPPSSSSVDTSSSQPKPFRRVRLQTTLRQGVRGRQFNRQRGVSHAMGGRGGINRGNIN

[3] = biological target: T3, HeLa cell extract proteins (Homo sapiens, UniProt O75306)
T3 construct: endogenous in cells; host or cells: HeLa cell extract
T3 sequence (O75306 34-463): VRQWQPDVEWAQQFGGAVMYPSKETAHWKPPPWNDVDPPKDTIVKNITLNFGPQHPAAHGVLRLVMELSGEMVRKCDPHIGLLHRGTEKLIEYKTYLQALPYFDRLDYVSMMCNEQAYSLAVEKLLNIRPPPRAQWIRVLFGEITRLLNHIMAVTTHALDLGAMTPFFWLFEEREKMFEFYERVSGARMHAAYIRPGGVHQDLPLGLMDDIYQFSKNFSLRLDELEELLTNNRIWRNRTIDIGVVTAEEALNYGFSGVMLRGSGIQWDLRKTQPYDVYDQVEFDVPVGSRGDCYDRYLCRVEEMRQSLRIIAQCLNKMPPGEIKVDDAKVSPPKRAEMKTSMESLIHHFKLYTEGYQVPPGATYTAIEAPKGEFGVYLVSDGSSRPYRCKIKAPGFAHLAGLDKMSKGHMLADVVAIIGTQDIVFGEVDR

[4] = biological target: T4, HeLa cell extract proteins (Homo sapiens, UniProt Q9UPY5)
T4 construct: endogenous in cells; host or cells: HeLa cell extract
T4 sequence (Q9UPY5 1-501): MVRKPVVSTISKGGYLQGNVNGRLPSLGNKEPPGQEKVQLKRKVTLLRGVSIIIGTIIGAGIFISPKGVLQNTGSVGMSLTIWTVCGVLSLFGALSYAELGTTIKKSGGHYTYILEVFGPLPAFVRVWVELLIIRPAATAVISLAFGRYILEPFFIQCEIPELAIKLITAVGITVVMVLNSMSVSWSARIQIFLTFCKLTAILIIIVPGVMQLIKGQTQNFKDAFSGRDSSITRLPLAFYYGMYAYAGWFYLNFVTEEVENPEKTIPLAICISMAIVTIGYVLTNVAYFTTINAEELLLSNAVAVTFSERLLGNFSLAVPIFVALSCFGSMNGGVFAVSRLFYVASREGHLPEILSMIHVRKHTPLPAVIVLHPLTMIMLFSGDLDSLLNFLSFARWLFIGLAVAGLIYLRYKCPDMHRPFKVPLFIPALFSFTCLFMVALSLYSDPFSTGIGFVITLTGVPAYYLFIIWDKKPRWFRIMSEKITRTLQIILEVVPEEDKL

[5] = biological target: T5, HeLa cell extract proteins (Homo sapiens, UniProt Q9UKU7)
T5 construct: endogenous in cells; host or cells: HeLa cell extract
T5 sequence (Q9UKU7 23-415): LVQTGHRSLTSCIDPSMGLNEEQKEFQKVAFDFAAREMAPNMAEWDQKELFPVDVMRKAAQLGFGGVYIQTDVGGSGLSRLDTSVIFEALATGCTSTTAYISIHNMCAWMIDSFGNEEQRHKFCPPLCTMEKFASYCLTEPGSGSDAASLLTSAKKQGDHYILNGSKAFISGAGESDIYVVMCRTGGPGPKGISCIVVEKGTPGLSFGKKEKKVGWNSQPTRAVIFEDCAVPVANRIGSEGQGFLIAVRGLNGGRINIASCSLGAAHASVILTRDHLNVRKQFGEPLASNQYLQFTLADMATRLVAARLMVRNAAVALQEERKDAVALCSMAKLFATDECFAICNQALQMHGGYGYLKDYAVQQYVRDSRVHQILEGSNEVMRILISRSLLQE

[6] = biological target: T6, HeLa cell extract proteins (Homo sapiens, UniProt Q9H773)
T6 construct: endogenous in cells; host or cells: HeLa cell extract
T6 sequence (Q9H773 1-170): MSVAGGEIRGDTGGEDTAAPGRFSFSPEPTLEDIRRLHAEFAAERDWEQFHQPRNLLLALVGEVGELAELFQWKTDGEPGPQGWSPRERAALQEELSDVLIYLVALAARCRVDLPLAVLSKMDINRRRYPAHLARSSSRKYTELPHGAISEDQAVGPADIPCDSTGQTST

[7] = biological target: T7, HeLa cell extract proteins (Homo sapiens, UniProt Q96QK1)
T7 construct: endogenous in cells; host or cells: HeLa cell extract

[8] = biological target: T8, HeLa cell extract proteins (Homo sapiens, UniProt P08237)
T8 construct: endogenous in cells; host or cells: HeLa cell extract
T8 sequence (P08237 1-780): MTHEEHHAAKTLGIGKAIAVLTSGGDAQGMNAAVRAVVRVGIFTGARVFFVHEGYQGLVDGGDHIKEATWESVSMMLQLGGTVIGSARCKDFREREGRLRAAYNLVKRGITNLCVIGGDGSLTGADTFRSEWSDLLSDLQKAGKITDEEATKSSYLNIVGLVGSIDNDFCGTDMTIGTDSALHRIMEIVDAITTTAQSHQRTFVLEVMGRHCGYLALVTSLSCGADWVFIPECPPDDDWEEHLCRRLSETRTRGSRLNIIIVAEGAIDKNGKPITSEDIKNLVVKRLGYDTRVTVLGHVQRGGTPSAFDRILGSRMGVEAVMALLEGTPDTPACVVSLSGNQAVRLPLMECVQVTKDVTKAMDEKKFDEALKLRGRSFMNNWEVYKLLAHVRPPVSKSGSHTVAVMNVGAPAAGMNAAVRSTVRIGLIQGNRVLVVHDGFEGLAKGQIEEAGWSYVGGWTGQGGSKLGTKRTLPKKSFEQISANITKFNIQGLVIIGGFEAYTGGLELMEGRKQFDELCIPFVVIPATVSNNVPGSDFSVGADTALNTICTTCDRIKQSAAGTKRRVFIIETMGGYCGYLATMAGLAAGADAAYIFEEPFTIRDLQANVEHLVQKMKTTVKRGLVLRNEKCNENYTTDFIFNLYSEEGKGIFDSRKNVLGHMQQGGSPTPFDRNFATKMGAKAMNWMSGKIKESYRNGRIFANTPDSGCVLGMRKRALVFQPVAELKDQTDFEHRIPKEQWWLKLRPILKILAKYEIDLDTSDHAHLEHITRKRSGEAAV

[9] = biological target: T9, HeLa cell extract proteins (Homo sapiens, UniProt O75608)
T9 construct: endogenous in cells; host or cells: HeLa cell extract
T9 sequence (O75608 whole entry): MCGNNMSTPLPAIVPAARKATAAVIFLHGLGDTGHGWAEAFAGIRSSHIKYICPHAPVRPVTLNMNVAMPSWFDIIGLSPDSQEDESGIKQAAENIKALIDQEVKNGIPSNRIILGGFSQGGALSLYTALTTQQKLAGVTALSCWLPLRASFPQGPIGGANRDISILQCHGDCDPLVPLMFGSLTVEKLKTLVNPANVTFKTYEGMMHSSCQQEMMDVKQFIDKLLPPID

[10] = biological target: T10, HeLa cell extract proteins (Homo sapiens, UniProt P09622)
T10 construct: endogenous in cells; host or cells: HeLa cell extract
T10 sequence (P09622 36-509): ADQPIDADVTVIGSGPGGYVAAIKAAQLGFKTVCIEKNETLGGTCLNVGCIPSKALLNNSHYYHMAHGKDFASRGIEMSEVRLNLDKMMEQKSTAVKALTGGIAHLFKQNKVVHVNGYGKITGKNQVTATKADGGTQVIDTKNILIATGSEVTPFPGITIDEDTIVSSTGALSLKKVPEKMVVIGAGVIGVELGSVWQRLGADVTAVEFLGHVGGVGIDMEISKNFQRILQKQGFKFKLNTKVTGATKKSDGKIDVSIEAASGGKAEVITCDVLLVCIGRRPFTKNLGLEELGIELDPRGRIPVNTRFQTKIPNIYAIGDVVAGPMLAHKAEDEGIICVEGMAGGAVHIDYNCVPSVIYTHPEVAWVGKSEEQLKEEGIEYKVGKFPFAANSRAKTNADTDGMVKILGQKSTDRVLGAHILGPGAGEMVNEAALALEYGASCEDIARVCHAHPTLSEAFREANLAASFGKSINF

[11] = biological target: T11, HeLa cell extract proteins (Homo sapiens, UniProt P35573)
T11 construct: endogenous in cells; host or cells: HeLa cell extract
T11 sequence (P35573 whole entry): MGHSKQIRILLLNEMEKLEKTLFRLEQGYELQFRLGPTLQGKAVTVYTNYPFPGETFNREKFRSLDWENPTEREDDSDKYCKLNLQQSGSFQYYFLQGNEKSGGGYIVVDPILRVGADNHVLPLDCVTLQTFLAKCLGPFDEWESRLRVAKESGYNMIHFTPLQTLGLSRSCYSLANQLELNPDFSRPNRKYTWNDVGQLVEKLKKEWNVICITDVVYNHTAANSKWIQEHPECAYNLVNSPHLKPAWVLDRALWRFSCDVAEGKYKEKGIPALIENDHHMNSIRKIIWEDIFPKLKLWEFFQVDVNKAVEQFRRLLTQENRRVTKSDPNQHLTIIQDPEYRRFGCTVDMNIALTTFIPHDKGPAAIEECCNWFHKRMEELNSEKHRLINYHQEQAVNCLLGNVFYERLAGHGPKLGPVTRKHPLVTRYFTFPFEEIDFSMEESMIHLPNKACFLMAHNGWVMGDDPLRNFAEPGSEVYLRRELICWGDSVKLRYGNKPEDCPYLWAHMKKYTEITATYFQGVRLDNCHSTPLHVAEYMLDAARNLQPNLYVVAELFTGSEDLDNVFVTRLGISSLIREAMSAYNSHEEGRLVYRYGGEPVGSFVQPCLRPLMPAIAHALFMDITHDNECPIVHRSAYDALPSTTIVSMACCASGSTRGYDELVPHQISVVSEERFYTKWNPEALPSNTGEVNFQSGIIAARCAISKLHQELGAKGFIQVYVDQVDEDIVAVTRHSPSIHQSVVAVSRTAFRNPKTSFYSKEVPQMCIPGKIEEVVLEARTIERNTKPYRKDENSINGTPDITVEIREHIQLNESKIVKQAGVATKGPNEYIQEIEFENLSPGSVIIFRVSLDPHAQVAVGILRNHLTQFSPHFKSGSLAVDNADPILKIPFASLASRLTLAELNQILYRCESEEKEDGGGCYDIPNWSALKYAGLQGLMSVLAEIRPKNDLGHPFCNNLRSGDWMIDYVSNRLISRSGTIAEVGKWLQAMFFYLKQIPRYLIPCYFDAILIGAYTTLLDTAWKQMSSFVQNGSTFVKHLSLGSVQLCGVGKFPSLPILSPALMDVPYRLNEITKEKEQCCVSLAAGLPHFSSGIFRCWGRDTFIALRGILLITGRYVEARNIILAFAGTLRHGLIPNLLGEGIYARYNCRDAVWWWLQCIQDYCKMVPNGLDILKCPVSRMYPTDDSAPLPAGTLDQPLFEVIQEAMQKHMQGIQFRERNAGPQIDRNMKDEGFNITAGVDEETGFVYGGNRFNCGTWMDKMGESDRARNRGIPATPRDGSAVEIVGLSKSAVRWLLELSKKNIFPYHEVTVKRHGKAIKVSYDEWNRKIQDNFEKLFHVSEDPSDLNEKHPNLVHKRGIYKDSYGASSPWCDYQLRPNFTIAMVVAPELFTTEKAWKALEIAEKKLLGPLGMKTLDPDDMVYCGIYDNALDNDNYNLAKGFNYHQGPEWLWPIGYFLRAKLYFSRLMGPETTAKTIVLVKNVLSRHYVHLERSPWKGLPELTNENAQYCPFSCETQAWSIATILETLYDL

[12] = HeLa, protein IKBKG (INHIBITOR OF KAPPAB KINASE GAMMA)
[13] = HeLa, protein XTP3TPA (XTP3-TRAN[…] A PROTEIN)
[14] = HeLa, protein AGL (PUTATIVE UNCHA[…] AGL (FRAGMENT))

T1 sequence (Q9Y6K9 whole entry): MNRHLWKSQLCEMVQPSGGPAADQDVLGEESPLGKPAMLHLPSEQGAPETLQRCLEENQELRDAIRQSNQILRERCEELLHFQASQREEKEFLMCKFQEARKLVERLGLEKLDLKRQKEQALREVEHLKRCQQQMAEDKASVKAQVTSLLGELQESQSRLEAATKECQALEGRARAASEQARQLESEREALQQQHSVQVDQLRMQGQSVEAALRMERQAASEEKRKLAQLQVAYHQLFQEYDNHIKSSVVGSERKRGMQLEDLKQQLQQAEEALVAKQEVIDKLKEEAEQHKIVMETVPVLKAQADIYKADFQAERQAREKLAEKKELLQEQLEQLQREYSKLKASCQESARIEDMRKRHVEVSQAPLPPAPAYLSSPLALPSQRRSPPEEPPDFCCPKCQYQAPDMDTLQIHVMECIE

SMILES | fold changes relative to vehicle control [1, 12] | fold changes relative to vehicle control ([2]; HeLa, captured protein TPR) | fold changes relative to vehicle control ([3]; protein NDUFS2, HeLa) | fold changes relative to vehicle control ([4]; HeLa, captured protein SLC7A11) | fold changes relative to vehicle control ([5]; HeLa, protein ACAD8) | fold changes relative to vehicle control ([7]; HeLa, protein VPS35) | fold changes relative to vehicle control ([8]; HeLa, captured protein PFKM) | fold changes relative to vehicle control ([9]; HeLa, captured protein LYPLA1) | fold changes relative to vehicle control ([10]; HeLa, captured protein DLD) | fold changes relative to vehicle control [11, 14] | fold changes relative to vehicle control ([1]; captured protein IKBKG, HeLa) | fold changes relative to vehicle control ([2]; protein TPR, HeLa) | fold changes relative to vehicle control ([3]; HeLa, protein NDUFS2) | fold changes relative to vehicle control ([4]; captured protein SLC7A11, HeLa) | fold changes relative to vehicle control ([5]; protein ACAD8, HeLa) | fold changes relative to vehicle control ([6]; captured protein XTP3TPA, HeLa) | fold changes relative to vehicle control ([7]; protein VPS35, HeLa) | fold changes relative to vehicle control ([8]; captured protein PFKM, HeLa) | fold changes relative to vehicle control ([9]; HeLa, protein LYPLA1) | fold changes relative to vehicle control ([10]; HeLa, protein DLD) | other results
Nc1nc2c(c(=O)[nH]1)N(C=O)C(CNc1ccc(C(=O)N[C@@H](CCC(=O)O)C(=O)O)cc1)CN2 (some centres unmarked) [LEU, leucovorin] | 0.98 | 1.35 | 0.86 | 0.96 | 0.79 | 0.91 | 1.01 | 0.89 | 1.01 | 1.19 |  |  |  |  |  |  |  |  |  |  | fold changes relative to vehicle control [6, 13]: 1.14
Nc1nc2[nH]cc(CCc3ccc(C(=O)N[C@@H](CCC(=O)O)C(=O)O)cc3)c2c(=O)[nH]1 [PTX, pemetrexed] |  |  |  |  |  |  |  |  |  |  |  |  |  |  |  |  |  |  |  |  | fold changes relative to vehicle control [1]: 1.02; fold changes relative to vehicle control [2]: 1.21; fold changes relative to vehicle control [3]: 0.92; fold changes relative to vehicle control [4]: 0.91; fold changes relative to vehicle control [5]: 0.83; fold changes relative to vehicle control [6]: 1.09; fold changes relative to vehicle control [7]: 1.05; fold changes relative to vehicle control [8]: 0.98; fold changes relative to vehicle control [9]: 0.93; fold changes relative to vehicle control [10]: 0.96; fold changes relative to vehicle control [11]: 1.1
CCCCCCOc1ccc(Cc2cnc(N)nc2N)cc1 [compound 1] |  |  |  |  |  |  |  |  |  |  | 1.08 | 1.19 | 1.15 | 0.98 | 1.11 | 0.91 | 1.13 | 1.15 | 0.92 | 0.96 | fold changes relative to vehicle control ([11]; HeLa, protein AGL): 1.05
CCCCCCOc1cccc(Cc2cnc(N)nc2N)c1 [compound 2] |  |  |  |  |  |  |  |  |  |  | 1.1 | 1.44 | 1.12 | 0.92 | 1.19 | 0.73 | 1.7 | 1.2 | 1.1 | 0.42 | fold changes relative to vehicle control ([11]; HeLa, protein AGL): 1.08
Nc1nc2cccc(-c3ccccc3)c2n1Cc1ccc(Cl)c(Cl)c1 [compound 3] |  |  |  |  |  |  |  |  |  |  | 0.9 | 1.2 | 1.3 | 0.99 | 1.13 | 1.14 | 0.96 | 1.01 | 0.71 | 1.01 | fold changes relative to vehicle control ([11]; HeLa, protein AGL): 1.13
NCCOCCOCC(=O)Nc1nc2ncc(CNc3ccc(C(=O)NC(CCC(=O)O)C(=O)O)cc3)nc2c(=O)[nH]1 (centres unmarked) [compound 6] | 0.96 | 1.51 | 1.12 | 0.93 | 0.75 | 1.15 | 1.02 | 0.98 | 0.99 | 1.09 |  |  |  |  |  |  |  |  |  |  | fold changes relative to vehicle control ([6]; HeLa, protein XTP3TPA (XTP3-TRANSACTIVATED GENE A PROTEIN)): 0.51
NCCCNc1ccc(C(=O)NC(CCC(=O)O)C(=O)O)cc1 (centres unmarked) [compound 7] | 1.15 | 1.06 | 1.13 | 0.95 | 0.77 | 1.1 | 1.02 | 0.92 | 1.03 | 1.17 |  |  |  |  |  |  |  |  |  |  | fold changes relative to vehicle control [6, 13]: 1.21
